This note sets out measurements from publication PMC7486443, “Generation of Phenothiazine with Potent Anti-TLK1 Activity for Prostate Cancer Therapy” (iScience, 2020).

Holding throughout (assay): biochemical
Parameters in all cases: DiscoverX KINOMEscan scanMAX competition binding panel, single concentration, percent of control; remaining binding: dose or concentration left out as unconfirmed
What all share (details): KINOMEscan binding, percent of control; read-out: Table S4_SCANMAX REPORT - related to Fig. 1 / Percent Control

The target of assay [1] is T1, RSK1(Kin.Dom.1-N-terminal) (Homo sapiens, UniProt Q15418).
T1 construct: gene RPS6KA1; Kin.Dom.1-N-terminal

In assay [2] the target is FLT3(ITD,D835V) (Homo sapiens, UniProt P36888, D835V/ITD).
For assay [3], the target named is AKT1 (Homo sapiens, UniProt P31749).
The target of assay [4] is TSSK1B (Homo sapiens, UniProt Q9BXA7).
Assay [5] concerns the target T2, ABL1(F317I)-phosphorylated (Homo sapiens, UniProt P00519, F317I).
T2 construct: phosphorylated

The target of assay [6] is T3, ABL1(H396P)-nonphosphorylated (Homo sapiens, UniProt P00519, H396P).
T3 construct: nonphosphorylated

Assay [7] concerns the target FLT3(D835H) (Homo sapiens, UniProt P36888, D835H).
Assay [8] concerns the target LCK (Homo sapiens, UniProt P06239).
The target of assay [9] is ERBB2 (Homo sapiens, UniProt P04626).
Chain of ERBB2 (P04626 whole entry): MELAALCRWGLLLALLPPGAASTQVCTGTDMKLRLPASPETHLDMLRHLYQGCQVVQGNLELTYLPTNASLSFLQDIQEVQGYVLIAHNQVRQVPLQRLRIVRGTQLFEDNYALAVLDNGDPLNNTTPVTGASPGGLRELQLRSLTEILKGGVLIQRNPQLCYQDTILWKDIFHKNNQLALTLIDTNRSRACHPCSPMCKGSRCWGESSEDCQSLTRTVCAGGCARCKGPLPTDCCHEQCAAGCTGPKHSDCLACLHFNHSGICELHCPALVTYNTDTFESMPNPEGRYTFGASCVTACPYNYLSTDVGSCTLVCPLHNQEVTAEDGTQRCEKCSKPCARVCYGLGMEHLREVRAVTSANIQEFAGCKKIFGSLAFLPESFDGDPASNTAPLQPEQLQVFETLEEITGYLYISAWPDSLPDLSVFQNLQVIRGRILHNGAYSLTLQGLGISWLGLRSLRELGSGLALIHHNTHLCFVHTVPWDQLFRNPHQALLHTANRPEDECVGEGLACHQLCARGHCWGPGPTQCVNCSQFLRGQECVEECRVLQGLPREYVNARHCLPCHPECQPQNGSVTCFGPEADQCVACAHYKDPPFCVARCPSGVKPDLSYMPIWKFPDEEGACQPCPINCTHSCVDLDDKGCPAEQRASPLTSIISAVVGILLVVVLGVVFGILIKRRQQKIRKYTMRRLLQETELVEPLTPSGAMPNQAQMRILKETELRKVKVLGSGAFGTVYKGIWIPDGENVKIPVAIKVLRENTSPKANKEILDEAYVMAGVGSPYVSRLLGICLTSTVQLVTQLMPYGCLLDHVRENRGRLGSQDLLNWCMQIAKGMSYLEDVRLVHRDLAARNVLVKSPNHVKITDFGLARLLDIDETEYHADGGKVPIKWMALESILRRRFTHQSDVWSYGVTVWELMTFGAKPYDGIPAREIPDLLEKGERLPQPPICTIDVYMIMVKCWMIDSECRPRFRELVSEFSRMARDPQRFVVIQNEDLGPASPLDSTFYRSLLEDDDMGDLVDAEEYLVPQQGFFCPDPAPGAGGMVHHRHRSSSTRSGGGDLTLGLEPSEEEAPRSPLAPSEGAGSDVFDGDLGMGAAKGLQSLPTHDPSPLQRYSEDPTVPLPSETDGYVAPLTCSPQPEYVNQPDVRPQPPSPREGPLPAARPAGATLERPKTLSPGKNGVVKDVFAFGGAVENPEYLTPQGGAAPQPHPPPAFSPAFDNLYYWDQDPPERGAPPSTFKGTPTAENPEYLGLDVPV
In assay [10] the target is MYLK (Homo sapiens, UniProt Q15746).
Assay [11] addresses PIK3CA(H1047L) (Homo sapiens, UniProt P42336, H1047L).
Assay [12] concerns the target VRK2 (Homo sapiens, UniProt Q86Y07).
For assay [13], the target named is T4, DCAMKL3 (Homo sapiens, UniProt Q9C098).
T4 construct: gene DCLK3

Assay [14] deals with T5, ERK5 (Homo sapiens, UniProt Q13164).
T5 construct: gene MAPK7

The target of assay [15] is T6, ERK8 (Homo sapiens, UniProt Q8TD08).
T6 construct: gene MAPK15

Assay [16] concerns the target T7, MKK7 (Homo sapiens, UniProt O14733).
T7 construct: gene MAP2K7

For assay [17], the target named is KIT (Homo sapiens, UniProt P10721).
Chain of KIT (P10721 whole entry): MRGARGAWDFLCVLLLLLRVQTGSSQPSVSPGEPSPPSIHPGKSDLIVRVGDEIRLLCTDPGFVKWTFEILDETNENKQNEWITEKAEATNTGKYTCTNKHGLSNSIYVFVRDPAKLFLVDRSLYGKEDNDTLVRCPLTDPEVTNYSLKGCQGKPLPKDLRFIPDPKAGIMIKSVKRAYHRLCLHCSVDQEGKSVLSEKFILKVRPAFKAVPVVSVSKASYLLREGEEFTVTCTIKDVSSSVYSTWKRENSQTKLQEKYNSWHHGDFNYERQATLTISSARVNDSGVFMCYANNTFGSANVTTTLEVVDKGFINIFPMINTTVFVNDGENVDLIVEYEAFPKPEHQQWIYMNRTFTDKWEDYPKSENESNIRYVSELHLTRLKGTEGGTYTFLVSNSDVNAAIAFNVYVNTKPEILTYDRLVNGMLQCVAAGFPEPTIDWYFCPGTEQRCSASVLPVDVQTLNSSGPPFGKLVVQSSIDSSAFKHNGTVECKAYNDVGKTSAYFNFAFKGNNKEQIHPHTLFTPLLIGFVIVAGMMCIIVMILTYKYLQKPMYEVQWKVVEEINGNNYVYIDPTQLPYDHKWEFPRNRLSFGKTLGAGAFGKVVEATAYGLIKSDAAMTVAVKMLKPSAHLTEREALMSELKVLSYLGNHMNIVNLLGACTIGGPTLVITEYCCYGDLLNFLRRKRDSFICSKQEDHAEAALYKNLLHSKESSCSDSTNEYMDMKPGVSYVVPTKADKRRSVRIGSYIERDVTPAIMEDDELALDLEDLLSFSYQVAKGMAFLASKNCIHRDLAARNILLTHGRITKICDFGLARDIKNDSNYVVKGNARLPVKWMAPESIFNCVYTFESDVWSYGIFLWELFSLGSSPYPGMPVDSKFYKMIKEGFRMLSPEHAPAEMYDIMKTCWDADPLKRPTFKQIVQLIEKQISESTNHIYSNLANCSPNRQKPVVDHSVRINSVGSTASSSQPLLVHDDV
Assay [18] addresses T8, TRKC (Homo sapiens, UniProt Q16288).
T8 construct: gene NTRK3

T7 sequence (O14733 whole entry): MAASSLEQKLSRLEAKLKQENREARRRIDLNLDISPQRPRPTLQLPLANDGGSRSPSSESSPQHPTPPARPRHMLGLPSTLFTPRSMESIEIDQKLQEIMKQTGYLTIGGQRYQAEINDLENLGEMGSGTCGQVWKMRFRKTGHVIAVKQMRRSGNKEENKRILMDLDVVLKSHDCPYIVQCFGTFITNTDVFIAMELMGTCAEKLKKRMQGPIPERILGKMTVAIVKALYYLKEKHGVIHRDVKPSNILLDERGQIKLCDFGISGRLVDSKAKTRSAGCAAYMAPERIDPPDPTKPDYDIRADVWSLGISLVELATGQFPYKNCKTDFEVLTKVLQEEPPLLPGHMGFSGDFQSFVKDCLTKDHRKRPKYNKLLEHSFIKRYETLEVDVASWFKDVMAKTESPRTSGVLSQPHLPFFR
Chain of LCK (P06239 whole entry): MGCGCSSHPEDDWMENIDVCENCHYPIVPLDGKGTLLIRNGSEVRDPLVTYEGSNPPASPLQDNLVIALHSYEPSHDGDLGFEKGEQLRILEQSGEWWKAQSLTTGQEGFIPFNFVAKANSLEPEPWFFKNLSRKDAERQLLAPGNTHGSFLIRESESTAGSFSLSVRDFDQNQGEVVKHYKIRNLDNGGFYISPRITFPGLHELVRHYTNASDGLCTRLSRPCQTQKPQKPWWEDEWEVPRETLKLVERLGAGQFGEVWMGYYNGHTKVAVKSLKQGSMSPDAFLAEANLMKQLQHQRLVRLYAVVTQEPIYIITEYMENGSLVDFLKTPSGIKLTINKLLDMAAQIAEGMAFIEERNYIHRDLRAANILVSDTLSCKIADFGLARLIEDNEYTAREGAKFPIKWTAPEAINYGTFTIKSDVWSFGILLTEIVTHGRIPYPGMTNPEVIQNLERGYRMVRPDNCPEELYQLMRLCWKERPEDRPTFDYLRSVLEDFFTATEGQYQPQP
T8 sequence (Q16288 whole entry): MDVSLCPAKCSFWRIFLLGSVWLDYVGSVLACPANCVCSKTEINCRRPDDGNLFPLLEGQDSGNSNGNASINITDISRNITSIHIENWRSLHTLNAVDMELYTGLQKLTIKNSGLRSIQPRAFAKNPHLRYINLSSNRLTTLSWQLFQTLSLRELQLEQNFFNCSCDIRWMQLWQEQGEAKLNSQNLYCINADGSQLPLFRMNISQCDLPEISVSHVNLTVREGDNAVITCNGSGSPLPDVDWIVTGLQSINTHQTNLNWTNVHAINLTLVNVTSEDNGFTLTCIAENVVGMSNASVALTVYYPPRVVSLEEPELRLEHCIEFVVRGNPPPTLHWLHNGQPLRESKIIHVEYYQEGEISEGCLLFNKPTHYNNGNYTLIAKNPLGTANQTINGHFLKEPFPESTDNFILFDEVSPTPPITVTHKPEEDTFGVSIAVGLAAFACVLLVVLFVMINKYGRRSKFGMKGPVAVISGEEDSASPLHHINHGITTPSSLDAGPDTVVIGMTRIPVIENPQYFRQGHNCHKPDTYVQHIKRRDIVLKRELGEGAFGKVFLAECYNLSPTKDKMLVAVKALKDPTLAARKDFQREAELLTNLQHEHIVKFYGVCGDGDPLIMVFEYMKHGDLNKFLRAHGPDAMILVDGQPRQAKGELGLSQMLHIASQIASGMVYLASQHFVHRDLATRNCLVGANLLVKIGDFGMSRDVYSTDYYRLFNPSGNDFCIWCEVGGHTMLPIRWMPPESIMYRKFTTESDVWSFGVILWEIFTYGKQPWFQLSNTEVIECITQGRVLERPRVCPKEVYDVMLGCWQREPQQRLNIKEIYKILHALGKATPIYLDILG
Chain of PIK3CA(H1047L) (P42336 whole entry H1047L): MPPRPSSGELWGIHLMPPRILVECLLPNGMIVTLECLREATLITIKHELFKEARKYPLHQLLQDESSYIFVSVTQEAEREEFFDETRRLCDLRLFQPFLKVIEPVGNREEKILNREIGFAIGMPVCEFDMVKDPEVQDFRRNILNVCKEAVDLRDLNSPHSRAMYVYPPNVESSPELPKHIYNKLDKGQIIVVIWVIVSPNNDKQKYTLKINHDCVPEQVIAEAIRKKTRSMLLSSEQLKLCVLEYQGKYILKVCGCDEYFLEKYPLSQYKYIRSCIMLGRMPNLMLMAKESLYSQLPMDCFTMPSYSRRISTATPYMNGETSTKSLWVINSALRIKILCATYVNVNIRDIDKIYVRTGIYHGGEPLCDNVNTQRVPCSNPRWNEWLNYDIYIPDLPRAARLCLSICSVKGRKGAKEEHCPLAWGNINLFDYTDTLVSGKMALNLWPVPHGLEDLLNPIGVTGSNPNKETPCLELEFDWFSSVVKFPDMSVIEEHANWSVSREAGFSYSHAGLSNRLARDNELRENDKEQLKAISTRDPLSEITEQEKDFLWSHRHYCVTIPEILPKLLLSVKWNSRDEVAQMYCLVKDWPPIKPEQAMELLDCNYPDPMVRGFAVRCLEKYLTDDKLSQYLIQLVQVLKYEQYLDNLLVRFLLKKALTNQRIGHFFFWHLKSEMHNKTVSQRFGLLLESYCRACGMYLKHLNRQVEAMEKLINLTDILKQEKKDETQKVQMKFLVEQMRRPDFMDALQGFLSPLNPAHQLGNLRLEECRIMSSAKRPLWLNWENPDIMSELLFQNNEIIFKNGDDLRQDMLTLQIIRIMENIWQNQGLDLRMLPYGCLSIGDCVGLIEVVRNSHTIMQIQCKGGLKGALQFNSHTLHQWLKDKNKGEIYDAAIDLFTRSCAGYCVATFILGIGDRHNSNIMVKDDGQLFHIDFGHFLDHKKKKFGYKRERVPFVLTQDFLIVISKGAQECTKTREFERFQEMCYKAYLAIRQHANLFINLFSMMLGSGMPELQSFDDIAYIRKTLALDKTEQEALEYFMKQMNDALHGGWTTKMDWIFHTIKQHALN

In the case of `c1ccc2c(c1)Sc1ccccc1N2CCN1CCOCC1` [J54], the remaining binding in assay [1] turned out to be 100%; in assay [2], 57%; in assay [3], 97%; in assay [4], 59%; in [5], 100%; in assay [6] it was 86%. Besides, the remaining binding in assay [7] is 100%; in assay [8], 100%; in [9] it was 100%; in [10] it was 97%; in assay [11], 100%; in [12], 70%. Besides, the remaining binding in assay [13] came to 95%; in assay [14], 100%; in [15], 89%; in [16], 79%; in assay [17], 100%; in assay [18], 81%.
